For 32 compounds, K app, pKa and Ratio results are on record in ChEMBL document CHEMBL1124973 (J Med Chem, 1990).

For data set [1], the target named is T1, Muscarinic acetylcholine receptor (Rattus norvegicus) (UniProt P08482+P08483+P08485+P08911+P10980).
Description: In vitro binding affinity against muscarinic acetylcholine receptor from rat cortical homogenates using [3H]N-methylscopolamine as radioligand
Data set [2] deals with T1, Muscarinic acetylcholine receptor (Rattus norvegicus). The source holds these as a separate data set.
Description: In vitro binding affinity against muscarinic acetylcholine receptor from rat cortical homogenates using [3H]oxotremorine-M radioligand
A short description of data set [3]: pKa value was measured. In kind it is physicochemical.
Data set [4] concerns the target T1, Muscarinic acetylcholine receptor (Rattus norvegicus). The data set can be described thus: The selectivity ratio of Kapp of NMS/OXO -M. In kind it is protein assay.

By pKa is commonly meant the negative logarithm of the acid dissociation constant. On to `Nc1noc(C2CN3CCN2CC3)n1` (stereo not given), for which the K app was more than 50 µM in data set [1] and 0.13 µM in data set [2]. Further, the pKa in data set [3] is 6.3.

For `Nc1noc(C2CN3CCC2CC3)n1` (stereo not given), the K app in data set [1] is 0.6 µM; in data set [2], 0.00047 µM.

Regarding `Nc1noc(C2=CCCNC2)n1`, the values for the K app in data set [1] and in data set [2] were 3.3 µM and 0.0017 µM, respectively.

As for `Cc1noc(C2CCCN(C)C2)n1` (stereo not given), the K app was 54 µM in data set [1] and 0.43 µM in data set [2].

Turning to `Cc1noc(C2CCCCN(C)C2)n1` (stereo not given), the K app was found to be 18 µM in data set [1] and 0.73 µM in data set [2].

`Nc1noc(C2CN3CCCC2C3)n1` (stereo in doubt; 17a): the K app in data set [1] is 0.77 µM; in data set [2] it was 0.00067 µM.

`Cc1noc(C2CC3CCC2NC3)n1` (stereo in doubt; 22a): the K app in data set [1] is 1.1 µM; in data set [2], 0.0032 µM.

`Cc1noc(C[N+](C)(C)C)n1`: the K app in data set [1] is 3.6 µM; in data set [2] it was 0.0014 µM.

For `Cc1noc(C2CN3CCC2C3)n1` (stereo in doubt; 15b), the K app in data set [1] was 3.6 µM; in data set [2], 0.0021 µM.

Turning to `Cc1noc(C2CN(C)CCN2)n1` (stereo not given), the Ratio in data set [4] is more than 6.6. Besides, the K app in data set [1] was more than 50 µM; in data set [2], 7.6 µM. Also, the pKa in data set [3] stood at 6.2.

`Nc1noc(C2CCNC2)n1` (stereo not given): the K app in data set [1] came to 21 µM; in data set [2], 0.04 µM.

With `Cc1noc(C2CCN(C)C2)n1` (stereo not given), the K app in data set [1] turned out to be 27 µM; in data set [2] it was 0.024 µM.

Consider `Cc1noc(C2CN3CCC2C3)n1` (stereo in doubt; 15a), for which the K app in data set [1] was determined as 0.1 µM; in data set [2], 9e-05 µM.

`Cc1noc(C2CC3CCC2NC3)n1` (stereo in doubt; 22b): the K app was 5.2 µM in data set [1] and 0.0025 µM in data set [2].

Regarding `Cc1noc(C2CC3CCC2N(C)C3)n1` (stereo in doubt; 23b), the figures for the K app in data set [1] and in data set [2] were 29 µM and 0.95 µM, respectively.

For the compound `C[N+](C)(C)CCOC(N)=O`, the values for the K app in data set [1] and in data set [2] were 22 µM and 0.0049 µM, respectively.

Consider `CN1CCN(C)C(c2nc(N)no2)C1` (stereo not given), for which the K app in data set [1] was more than 50 µM; in data set [2], more than 14 µM. This compound had a pKa in data set [3] of 6.

As to `CN1CCC(c2nc(N)no2)C1` (stereo not given), the K app in data set [1] turned out to be 17 µM; in data set [2] it was 0.01 µM.

For the compound `Nc1noc(C2CN3CCCC2C3)n1` (stereo in doubt; 17b), the values for the K app in data set [1] and in data set [2] were 1.8 µM and 0.003 µM, respectively.

As to `Cc1noc(C2CN3CCC2CC3)n1` (stereo not given), the results for the K app in data set [1] and in data set [2] were 0.44 µM and 0.00096 µM, respectively.

Take `Nc1noc(C2CNCCN2)n1` (stereo not given): the Ratio in data set [4] was more than 100. Also, the results for the K app in data set [1] and in data set [2] were more than 50 µM and 0.45 µM, respectively. In data set [3], this compound returned a pKa of 7.1.

With `Nc1noc(C2CN3CCC2C3)n1` (stereo in doubt; 16b), the K app is 1.6 µM in data set [1] and 0.0015 µM in data set [2].

Regarding `Cc1noc(C2=CCCNC2)n1`, the K app in data set [1] was 2.4 µM; in data set [2], 0.0016 µM.

As to `CN1CCC=C(c2nc(N)no2)C1`, the K app in data set [1] was determined as 2.8 µM; in data set [2], 0.0026 µM.

Consider `CN1CCCC(c2nc(N)no2)C1` (stereo not given), for which the K app in data set [1] was 53 µM; in data set [2], 0.24 µM.

`Nc1noc(C2CN3CCC2C3)n1` (stereo in doubt; 16a): the results for the K app in data set [1] and in data set [2] were 0.031 µM and less than 4.3e-05 µM, respectively.

On to `CN1CCNC(c2nc(N)no2)C1` (stereo not given), for which the Ratio in data set [4] is more than 5.5. For the same compound, the K app in data set [1] was more than 50 µM; in data set [2] it was 9.1 µM. Besides, in data set [3], the pKa came out at 6.2.

Regarding `Cc1noc(C2CNCCN2)n1` (stereo not given), the values for the K app in data set [1] and in data set [2] were more than 50 µM and 0.64 µM, respectively. For the same compound, the pKa in data set [3] was determined as 7.1.

As to `Cc1noc(C2=CCCN(C)C2)n1`, the values for the K app in data set [1] and in data set [2] were 2.1 µM and 0.0054 µM, respectively.

As for `Cc1noc(C2CC3CCC2N(C)C3)n1` (stereo in doubt; 23a), the K app in data set [1] came to 8.9 µM; in data set [2] it was 0.3 µM.

Regarding `Cc1noc(CN(C)C)n1`, the values for the K app in data set [1] and in data set [2] were more than 50 µM and 3.3 µM, respectively. This compound also showed a pKa in data set [3] of 5.6.

`Cc1noc(C2CN3CCN2CC3)n1` (stereo not given): the K app is 36 µM in data set [1] and 0.44 µM in data set [2]. Moreover, the pKa in data set [3] amounted to 6.
